Data set [1] has as its target Epithelial Cell Kinase (ECK) (Homo sapiens, UniProt P29317). The data set can be described thus: biochemical.
For data set [2], the target named is T1, Kinase insert Domain containing Receptor (KDR: the catalytic domain of the VEGF receptor) (Homo sapiens, UniProt P35968).
T1 construct: KDR: the catalytic domain of the VEGF receptor
The data set can be described thus: Inhibition of Kinase insert Domain containing Receptor (KDR).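 Note: KDR phosphorylating a Glu:Tyr 4:1 copolymer with P32- or P33-labelled ATP, Mg++ and vanadate, read as acid-insoluble radiolabel, compared with compound-free reaction.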 In kind it is biochemical. Conditions: pH 7.2; radioactive format; read-out: KDR IC50 (converted).
Experimental: In this standard pharmacological test procedure, KDR protein is mixed, in the presence or absence of a inhibitor compound, with a substrate peptide to be phosphorylated (a copolymer of glutamic acid and tyrosine, E:Y :: 4:1) and other cofactors such as Mg^++ and sodium vanadate (a protein tyrosine phosphatase inhibitor) in an appropriate buffer to maintain pH (7.2). ATP and a radioactive tracer (either P^32-or P^33- labeled ATP) is then add to initiate phosphorylation. After incubation, the radioactive phosphate associated with the acid-insoluble fraction of the assay mixture is then quantified as reflection of substrate phosphorylation.

The target in data set [3] is recombinant human MEK 1 (MAPKK) and recombinant human ERK2 (MAPK). Put plainly: Mitogen Activated Protein Kinase (MAPK) assay, two component coupled MEK 1 / ERK2.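 Note: MEK 1-activated ERK2 phosphorylates MBP or Myc peptide with 33P-ATP, filter capture and scintillation counting, inhibitor preincubated with ERK2 30 min at 0 °C, inhibition relative to uninhibited control.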 In kind it is biochemical. The note with it: separate entries for the same compound = evaluated more than one time.
Another data set has as its system SW620. The data set can be described thus: Inhibition of cancer cell growth as measured by cell number, SW620.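 Note: SW620 was included as a cell line with little or no EGFR or HER2/neu expression, in contrast to receptor-overexpressing lines.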 In kind it is cell-based, human. Conditions: Homo sapiens, SW-620, 48 h, read-out: IC50 SW620.
The test system of the next data set is A431. Put plainly: Inhibition of cancer cell growth as measured by cell number, A431.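 Note: human A431 line, picked because it overexpresses epidermal growth factor receptor (EGFR).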 In kind it is cell-based, human. The note with it: Homo sapiens, A-431, 48 h, read-out: IC50 A431.
The test system of the next data set is SKBR3. Put plainly: Inhibition of cancer cell growth as measured by cell number, SKBR3.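 Note: SK-BR-3 cells were selected as a line overexpressing HER2/neu.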 In kind it is cell-based, human. Conditions: Homo sapiens, SK-BR-3, 48 h, read-out: IC50 SKBR3.
The target of data set [4] is T2, His-tagged cytoplasmic domain of EGFR (Homo sapiens, UniProt P00533).
T2 construct: containing the EGFR cDNA encoding amino acids 645 - 1186 preceded by Met-Ala-(His)6; made in house; host or cells: Sf9 cells, recombinant baculovirus vHcEGFR52
T2 sequence (P00533 669-1210): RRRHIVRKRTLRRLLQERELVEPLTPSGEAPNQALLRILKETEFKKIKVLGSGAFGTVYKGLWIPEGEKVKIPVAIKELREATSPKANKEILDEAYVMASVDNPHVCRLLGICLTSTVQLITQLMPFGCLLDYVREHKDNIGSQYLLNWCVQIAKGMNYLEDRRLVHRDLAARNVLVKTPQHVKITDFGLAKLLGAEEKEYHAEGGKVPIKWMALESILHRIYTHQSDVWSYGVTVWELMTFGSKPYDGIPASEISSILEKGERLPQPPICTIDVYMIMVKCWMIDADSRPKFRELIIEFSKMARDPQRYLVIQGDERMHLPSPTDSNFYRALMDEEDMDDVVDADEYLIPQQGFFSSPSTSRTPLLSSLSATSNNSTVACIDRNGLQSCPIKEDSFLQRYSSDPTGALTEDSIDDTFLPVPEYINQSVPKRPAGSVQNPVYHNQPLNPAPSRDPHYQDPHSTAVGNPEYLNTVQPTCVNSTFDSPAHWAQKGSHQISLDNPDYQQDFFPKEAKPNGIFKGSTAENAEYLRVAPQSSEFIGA
The data set can be described thus: Inhibition of Epidermal Growth Factor Receptor Kinase (EGF-R) using recombinant enzyme.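 Note: radiometric kinase assay measuring radiolabeled phosphate transfer from ATP onto the peptide tyrosine by scintillation counting, control is reaction without compound, background subtracted, IC50 from dose-response curve.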 It is filed as biochemical. The note with it: recombinant enzyme; RR-SRC peptide; average of the number of tests; read-out: IC50.

The next data set concerns LOX. The data set can be described thus: Inhibition of cancer cell growth as measured by cell number, LOX.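 Note: LOX cells served as a line with low or absent EGFR and HER2/neu expression, in contrast to receptor-overexpressing lines.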 In kind it is cell-based, human. Conditions: Homo sapiens, LOX, 48 h, read-out: IC50 LOX.
Data set [5] has as its system human epidermoid tumors (A431). Put plainly: In vivo inhibition of the growth of human epidermoid tumors (A431). The note with it: for S/T = No. Survivors/No. Treated: Day +28 post tumor staging. The procedure:
Representative compounds of this invention (listed below) were evaluated in an in vivo standard pharmacological test procedure which measured its ability to inhibit the growth of human epidermoid tumors. […] BALB/c nu/nu female mice (Charles River, Wilmington, MA) were used in this in vivo standard pharmacological test procedure. A unit of 5 X 10^6 cells were injected SC into mice. When tumors attained a mass of between 100 and 150 mg, the mice were randomized into treatment groups (day zero). […] Control animals received no drug. Tumor mass was determined every 7 days [(length X width^2)/2] for 28 days post staging. Relative tumor growth (Mean tumor mass on days 7, 14, 21, and 28 divided by the mean tumor mass on day zero) is determined for each treatment group.

[6] abbreviates: Table 10, 80 mg/kg/dose IP on days 1,5,9.
[7] abbreviates: Table 10, 80 mg/kg/dose PO on days 1 through 10.
Where [8] appears, read: Table 11, 80 mg/kg/dose IP on days 1,5 and 9.
Setting [9] is: Table 11, 80 mg/kg/dose PO on days 1 through 10.

The values that follow come from patent publication EP0973746B1, “SUBSTITUTED 3-CYANO QUINOLINES” (Wyeth Holdings Corporation, priority 1997, dated 1998).

Converted amounts (≈) assume the structure as drawn. “And” between values parts separate entries of the source, which are not always exact repeats. Equal values may be shown once.

Sequence of Epithelial Cell Kinase (ECK) (P29317 24-976, species assumed): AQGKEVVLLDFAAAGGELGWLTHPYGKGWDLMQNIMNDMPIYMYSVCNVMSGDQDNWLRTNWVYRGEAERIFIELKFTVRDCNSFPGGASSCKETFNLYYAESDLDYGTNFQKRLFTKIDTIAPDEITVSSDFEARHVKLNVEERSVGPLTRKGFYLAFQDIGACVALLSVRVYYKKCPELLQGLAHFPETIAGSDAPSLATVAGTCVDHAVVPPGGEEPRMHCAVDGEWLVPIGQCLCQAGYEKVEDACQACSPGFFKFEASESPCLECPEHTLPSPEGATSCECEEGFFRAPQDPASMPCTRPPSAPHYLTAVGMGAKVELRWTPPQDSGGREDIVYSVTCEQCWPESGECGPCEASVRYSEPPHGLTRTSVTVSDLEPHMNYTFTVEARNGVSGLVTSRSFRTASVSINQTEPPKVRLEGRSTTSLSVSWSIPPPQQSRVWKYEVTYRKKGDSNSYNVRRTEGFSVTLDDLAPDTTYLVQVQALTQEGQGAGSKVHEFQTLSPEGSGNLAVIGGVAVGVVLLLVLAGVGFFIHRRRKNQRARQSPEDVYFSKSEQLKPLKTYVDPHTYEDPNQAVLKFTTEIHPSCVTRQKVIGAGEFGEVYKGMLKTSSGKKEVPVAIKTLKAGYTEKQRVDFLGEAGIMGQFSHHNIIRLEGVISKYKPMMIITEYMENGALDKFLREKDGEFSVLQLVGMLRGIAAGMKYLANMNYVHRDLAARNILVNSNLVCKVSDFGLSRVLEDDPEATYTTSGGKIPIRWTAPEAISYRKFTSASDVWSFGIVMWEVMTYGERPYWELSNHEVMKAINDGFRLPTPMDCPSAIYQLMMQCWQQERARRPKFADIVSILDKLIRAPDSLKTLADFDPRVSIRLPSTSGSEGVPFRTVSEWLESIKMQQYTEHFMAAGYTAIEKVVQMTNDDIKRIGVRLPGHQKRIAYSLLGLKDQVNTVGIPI
T1 sequence (P35968 834-1162 limits assumed): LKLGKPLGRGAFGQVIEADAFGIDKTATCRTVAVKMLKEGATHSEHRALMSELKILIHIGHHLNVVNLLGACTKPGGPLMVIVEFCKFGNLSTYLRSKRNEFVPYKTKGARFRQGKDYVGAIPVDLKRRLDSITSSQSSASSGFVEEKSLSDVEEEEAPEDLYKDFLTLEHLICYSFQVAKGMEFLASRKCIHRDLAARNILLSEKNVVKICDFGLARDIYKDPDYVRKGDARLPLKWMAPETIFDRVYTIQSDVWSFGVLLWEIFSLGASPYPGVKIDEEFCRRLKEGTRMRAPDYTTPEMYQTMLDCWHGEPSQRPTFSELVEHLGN
Text for LOX: (§1) The cell lines were chosen since they overexpressed epidermal growth factor receptor (EGFR) (i.e. A431) or HER2/neu (SKBR3), or had little to no expression of the these receptors (SW620, LOX, MCF7).
Text for SKBR3: as §1
Text for SW620: as §1

In the case of `COc1cc2c(Nc3ccc(Cl)cc3F)c(C#N)cnc2cc1OCCCCl` [Example 76, 4-(4-Chloro-2-fluoro-phenylamino)-7-(3-chloro-propoxy)-6-methoxy-quinoline-3-carbonitrile], the IC50 is 0.466 µM in data set [1], 1.67 µM in [2] and under 1 µM in data set [3].
As for `COc1cc2c(Nc3cc(O)c(Cl)cc3F)c(C#N)cnc2cc1OCCCN1CCOCC1` [Example 85, 4-(4-Chloro-2-fluoro-5-hydroxy-phenylamino)-6-methoxy-7-(3-morpholin-4-yl-propoxy)-quinoline-3-carbonitrile], the IC50 in data set [1] is 0.0411 µM; in data set [2], 0.616 µM.
In the case of `CCN(CC)CC=CC(=O)Nc1ccc2ncc(C#N)c(Nc3cccc(Br)c3)c2c1` [Example 100, 4-Diethylamino-but-2-enoic acid [4-(3-bromophenylamino)-3-cyano-quinolin-6-yl]-amide], the IC50 in the data set on SW620 came to 0.8 µg/mL (≈ 1.67 µM); with A431, 0.1 µg/mL (≈ 0.209 µM); with SKBR3, 0.1 µg/mL (≈ 0.209 µM); in [1] it was 41.8 µM; in data set [3], 20 µM.
With `C=CC(=O)Nc1ccc2ncc(C#N)c(Nc3cccc(I)c3)c2c1` [Example 129], the 50% inhibitory concentration (IC50) is 0.04 µM in data set [4], 22.7 µM in data set [1] and 60 µM in data set [3].
For `N#Cc1cnc2ccc(NC(=O)C#CCN3CCCCC3)cc2c1Nc1cccc(Br)c1` [Example 169, N-{4-[(3-Bromophenyl)amino]-3-cyano-6-quinolinyl}-4-piperidino-2-butynamide], the IC50 was 0.005 µM in data set [4]; 0.1 µg/mL (≈ 0.205 µM) in the data set with SW620; 0.01 µg/mL (≈ 0.0205 µM) with A431; 0.02 µg/mL (≈ 0.041 µM) in the data set on SKBR3; 40.9 µM in [1]; over 100 µM in data set [3].
For the compound `N#Cc1cnc2ccc(NC(=O)C=CCN3CCOCC3)cc2c1Nc1ccc(F)c(Br)c1` [Example 174, N-{4-[(3-Bromo-4-fluorophenyl)amino]-3-cyano-6-quinolinyl] -4-morpholino-2-butenamide], the results for the 50% inhibitory concentration (IC50) (in the data set with SW620; in data set [1]; in [3]) were over 5 µg/mL, 39.2 µM and 2.5 µM, respectively.
On to `CCN(CC)CC#CC(=O)Nc1ccc2ncc(C#N)c(Nc3cccc(Br)c3)c2c1` [Example 187, N-[4-[(3-Bromophenyl)amino]-3-cyano-6-quinolinyl]-4-diethylamino-2-butynamide], for which the 50% inhibitory concentration (IC50) in data set [4] was 0.0007 µM; with SW620, 0.05 µg/mL (≈ 0.105 µM); in the data set on LOX, 0.07 µg/mL (≈ 0.147 µM); in the data set on A431 it was 0.06 µg/mL (≈ 0.126 µM); with SKBR3, 0.06 µg/mL (≈ 0.126 µM); in data set [1], over 42 µM. The IC50 in data set [3] is over 100 µM.
As for `CC(C)N(C)CC#CC(=O)Nc1ccc2ncc(C#N)c(Nc3cccc(Br)c3)c2c1` [Example 191, N-[4-[(3-Bromophenyl)amino]-3-cyano-6-quinolinyl]-4-(N-isopropyl-N-methylamino)-2-butynamide], the IC50 in the data set on SKBR3 is 0.06 µg/mL (≈ 0.126 µM); in [1], 42 µM.
As to `CC(C)N(CC#CC(=O)Nc1ccc2ncc(C#N)c(Nc3cccc(Br)c3)c2c1)C(C)C` [Example 192, N-[4-[(3-Bromophenyl)amino]-3-cyano-6-quinolinyl]-4-diisopropylamino-2-butynamide], the IC50 in data set [4] is 0.0006 µM; in the data set with SW620 it was 0.1 µg/mL (≈ 0.198 µM); in the data set with A431 it was 0.05 µg/mL (≈ 0.0991 µM); with SKBR3, 0.03 µg/mL (≈ 0.0595 µM); in [1], 39.6 µM; in [3], over 100 µM.
As for `CN(C)CC#CC(=O)Nc1ccc2ncc(C#N)c(Nc3ccc(F)c(Cl)c3)c2c1` [Example 193, N-[4-[(3-Chloro-4-fluorophenyl)amino]-3-cyano-6-quinolinyl]-4-dimethylamino-2-butynamide], the half-inhibitory concentration (IC50) in data set [4] is 0.0019 µM; with SW620, 0.1 µg/mL (≈ 0.237 µM); in the data set on A431, 0.01 µg/mL (≈ 0.0237 µM); in the data set on SKBR3 it was 0.003 µg/mL (≈ 0.00711 µM); in data set [1], 47.4 µM; in data set [3] it was 50 µM.
Regarding `COc1cc2ncc(C#N)c(Nc3cccc(Br)c3)c2cc1NC(=O)C=CCN1CCOCC1` [Example 200, 4-Morpholin-4-yl-but-2-enoic acid [4-(3-bromo-phenylamino)-3-cyano-7-methoxy-quinolin-6-yl]-amide], the values for the concentration for half-maximal inhibition (IC50) (in the data set on SW620; in data set [1]; in [3]) were over 5 µg/mL, 38.3 µM and over 100 µM, respectively.
Regarding `COc1cc2ncc(C#N)c(Nc3ccc(F)c(Cl)c3)c2cc1NC(=O)C=CCN(C)C` [Example 203, 4-Dimethylamino-but-2-enoic acid [4-(3-chloro-4-fluorophenylamino)-3-cyano-7-methoxy-quinolin-6-yl]-amide], in data set [5] (setting [6]), the “%T/C Day 7” value is recorded as 20%, the “%T/C Day 14” value was 12%, the “%T/C Day 21” value amounted to 14% and the “%T/C Day 28” value is listed as 16%. Moreover, in [5] (setting [6]), the “S/T = No. Survivors/No. Treated” value was 5/5. Moreover, in [5] (setting [7]), the “%T/C Day 7” value amounted to 15%, the “%T/C Day 14” value is listed as 8%, the “%T/C Day 21” value was 12% and the “%T/C Day 28” value came to 17%. The “S/T = No. Survivors/No. Treated” value in data set [5] (setting [7]) is reported as 4/5. Besides, the IC50 in data set [1] turned out to be 2.2 µM. In addition, the IC50 in data set [3] was < 1 µM and 0.8 µM.
With `CCN(CC)CC=CC(=O)Nc1cc2c(Nc3ccc(F)c(Cl)c3)c(C#N)cnc2cc1OC` [Example 204, 4-Diethylamino-but-2-enoic acid [4-(3-chloro-4-fluorophenylamino)-3-cyano-7-methoxy-quinolin-6-yl]-amide], in data set [5] (setting [6]), the “%T/C Day 7” value worked out at 45%, the “%T/C Day 14” value is recorded as 42%, the “%T/C Day 21” value is reported as 55% and the “%T/C Day 28” value is given as 49%. Also, the “S/T = No. Survivors/No. Treated” value in data set [5] (setting [6]) is recorded as 5/5. Besides, in data set [5] (setting [7]), the “%T/C Day 7” value amounted to 25%, the “%T/C Day 14” value is recorded as 18%, the “%T/C Day 21” value was found to be 43% and the “%T/C Day 28” value came to 51%. Moreover, the “S/T = No. Survivors/No. Treated” value in [5] (setting [7]) was 4/5. The IC50 in data set [1] was 20.7 µM. For the same compound, in data set [3], the IC50 amounted to 35 µM.
In the case of `COc1cc2ncc(C#N)c(Nc3ccc(F)c(Cl)c3)c2cc1NC(=O)C=CCN1CCOCC1` [Example 205, 4-Morpholin-4-yl-but-2-enoic acid [4-(3-chloro-4-fluorophenylamino)-3-cyano-7-methoxy-quinolin-6-yl]-amide], in data set [5] (setting [6]), the “%T/C Day 7” value is reported as 30%, the “%T/C Day 14” value came to 25%, the “%T/C Day 21” value was 38% and the “%T/C Day 28” value is 61%. The “S/T = No. Survivors/No. Treated” value in data set [5] (setting [6]) was 5/5. Besides, in data set [5] (setting [7]), the “%T/C Day 7” value is 23%, the “%T/C Day 14” value is 19%, the “%T/C Day 21” value is 23% and the “%T/C Day 28” value amounted to 29%. The “S/T = No. Survivors/No. Treated” value in data set [5] (setting [7]) is recorded as 5/5. Moreover, in data set [1], 40.4 µM corresponded to half-maximal inhibition (IC50). Besides, the IC50 in data set [3] is over 100 µM.
For `CCOc1cc2ncc(C#N)c(Nc3cccc(Br)c3)c2cc1NC(=O)C=CCN(CC)CC` [Example 217, 4-Diethylamino-but-2-enoic acid [4-(3-bromo-phenylamino)-3-cyano-7-ethoxy-quinolin-6-yl]-amide], in data set [5] (setting [8]), the “%T/C Day 7” value amounted to 25%, the “%T/C Day 14” value is given as 36%, the “%T/C Day 21” value is reported as 51% and the “%T/C Day 28” value is on record as 56%. Further, in data set [5] (setting [8]), the “S/T = No. Survivors/No. Treated” value is 5/5. In addition, in data set [5] (setting [9]), the “%T/C Day 7” value was found to be 30%, the “%T/C Day 14” value amounted to 33%, the “%T/C Day 21” value came to 43% and the “%T/C Day 28” value stood at 42%. In data set [5] (setting [9]), the “S/T = No. Survivors/No. Treated” value is given as 5/5. This compound also registered an IC50 in [1] of 0.115 µM.
For the compound `COc1ccc2ncc(C#N)c(Nc3ccc(C)c(O)c3)c2c1` [Example 284, 4-(3-Hydroxy-4-methyl-phenylamino)-6-methoxy-quinoline-3-carbonitrile], the 50% inhibitory concentration (IC50) in data set [1] was found to be 32.8 µM; in [3], 4 µM.
